Where a SMILES comes first, the peptide text is derived from it. [ ]: non-standard residue; d: D form.
Columns and labels:
[1] = tested on: Enterococcus faecium #2-1; assay: Biofilm inhibition (at least 80%), E. faecium; format: cell-based; conditions: E. faecium #2-1; n = 3; TSB + 1% glucose; 48 hours; crystal violet
[2] = tested on: MRSA USA300; assay: Biofilm inhibition (at least 80%), MRSA; format: cell-based, methicillin resistant Staphylococcus aureus; conditions: n = 4, 10% TSB + 0.1% glucose, 18-24 hours, crystal violet
[3] = tested on: Klebsiella pneumonia KPLN649; assay: Biofilm inhibition (at least 80%), K. pneumonia; format: cell-based; conditions: K. pneumoniae KPLN649; n = 3; BM2 minimal media; 48 hours; crystal violet
[4] = tested on: Acinetobacter baumannii Ab5075; assay: Biofilm inhibition (at least 80%), A. baumannii; format: cell-based; conditions: n = 4, BM2 minimal media, 18-24 hours, crystal violet
[5] = tested on: P. aeruginosa PAO1; assay: Biofilm inhibition (at least 80%), P. aeruginosa; format: cell-based, Pseudomonas aeruginosa; conditions: n = 4, BM2 minimal media, 18-24 hours, crystal violet
[6] = tested on: Enterobacter cloacae 218R1; assay: Biofilm inhibition (at least 80%), E. cloacae; format: cell-based; conditions: E. cloacae 218R1; n = 3; BM2 minimal media; 18-24 hours; crystal violet
[7] = tested on: E. coli O157:H7; assay: Biofilm inhibition (at least 80%), E. coli; format: cell-based, Escherichia coli; conditions: n = 3, BM2 minimal media, 18-24 hours, crystal violet
[8] = tested on: P. aeruginosa PAO1 biofilms; assay: Biofilm inhibition by SPOT-synthesized AB103-D variants (crystal violet), P. aeruginosa; format: cell-based, Pseudomonas aeruginosa; conditions: P. aeruginosa PAO1, SPOT peptides
[9] = tested on: MRSA USA300 biofilms; assay: Biofilm inhibition by >95% pure peptides (crystal violet), MRSA; format: cell-based, methicillin resistant Staphylococcus aureus; conditions: MRSA USA300 biofilms, >95% pure peptides, 10% TSB + 0.1% glucose
[10] = Peptide aggregation in RPMI + 10% FBS with PBMCs (microscopy); format: physicochemical; conditions: overnight
Method: Peptide Aggregation: Peptide aggregation was assessed qualitatively by examining samples of peptides mixed with PBMCs following overnight incubation at 37 °C and 5% CO2. All samples were prepared in RPMI media containing 10% FBS the same manner as the cytotoxicity assays described above. Visualization of aggregates was done using a Nikon Eclipse TS100 Inverted Microscope at 10× magnification.
In aggregation studies, peptides were added to PBMCs in RPMI media containing 10% FBS and incubated overnight at 37 °C in 5% CO2.
The peptides were also evaluated for their tendency to aggregate when added to RPMI tissue culture media containing 10% fetal bovine serum in the presence of PBMCs. Peptides were added to PBMCs in RPMI media containing 10% FBS and incubated overnight at 37 °C in 5% CO2. […] Compared to a highly aggregation prone peptide, 1018 [Haney, E. F., et al. (2017). Aggregation and its influence on the immunomodulatory activity of synthetic innate defense regulator peptides.
As with the DJK-5 derivatives above, the AB103-D derivatives were evaluated for their tendency to aggregate when added to RPMI tissue culture media containing 10% fetal bovine serum in the presence of PBMCs. Peptides were added to PBMCs in RPMI media containing 10% FBS and incubated overnight at 37 °C in 5% CO2.

[11] = Subdermal murine toxicity model; conditions: 1 hour after subcutaneous administration; comparator DJK-5
Method: FIGS. 14A-14B show murine subdermal toxicity assessment of AB103-D derived peptides. Clinical scores were recorded for each peptide treated mouse one hour after peptide administration (FIG. 14A). […] The presence of a cyst or lesion was recorded 16 hours after peptide administration and the size of the cyst was measured using calipers (FIG. 14B). Data shown are the mean of two independent replicates at a peptide dose of 4 mg/kg.
Subdermal murine toxicity model: A subdermal toxicity mouse model was used to evaluate whether peptides induced localized toxicity of treated cutaneous tissue. Mice were anesthetized with 2.5-3% isoflurane and their fur was removed by shaving followed by application of a chemical depilatory. […] Mice were visually assessed and received clinical scores for a battery of signs or symptoms (activity/behaviour change, appearance/grooming, hydration, pain, cyst formation), for which a score of zero was given to animals that appeared normal. Animals were weighed and clinical scores were totalled. Following an overnight (16 h) incubation, mice were scored and weighed then euthanized with CO2 followed by cervical dislocation. Mice were imaged and cysts (swollen, inflamed tissue) were measured using a caliper. Animal experiments were performed in accordance with the Canadian Council on Animal Care (CCAC) guidelines and were approved by the University of British Columbia Animal Care Committee. Female CD-1 mice were purchased from Charles River Laboratories, Inc. (Wilmington, MA). All mice were 8 weeks of age and weighed 25±5 g at the time of the experiment. Animals were group housed in cohorts of three to four littermates. Standard animal husbandry practices were employed.

[12] = tested on: MRSA biofilms (USA300 LAC); conditions: SPOT peptides
[13] = tested on: P. aeruginosa PAO1 biofilms; conditions: P. aeruginosa PAO1 biofilms; >95% pure peptides; crystal violet; BM2 minimal media
[14] = tested on: red blood cells; assay: Hemolysis; format: cell-based, human; conditions: 4 hours
Method: Hemolysis: Peptide induced hemolysis was evaluated according to methods described previously [Hilchie, A. L., et al. (2016). Mastoparan is a membranolytic anti-cancer peptide that works synergistically with gemcitabine in a mouse model of mammary carcinoma. Biochimica Et Biophysica Acta, 1858(12), 3195-3204]. Briefly, red blood cells were obtained, with human ethics approval, from the blood of healthy volunteers collected in a sodium heparin tube and then rinsed three times in PBS, centrifuging between washes, to obtain the hematocrit (100% RBC). A 2.5% RBCs suspension was exposed to peptide at varying concentrations and incubated at 37 C in a 5% CO2 humidified atmosphere for 4 hours. Supernatants were collected following centrifugation (1100 rpm) and transferred to a flat bottom microtitre plate. The absorbance (490 nm) of each supernatant was measured on a BioTek Epoch Microplate Spectrophotometer. Percent hemolysis was calculated by comparing the absorbance arising from peptide treated cells to RBCs treated with […] (0% hemolysis) or lysed with 1% Triton X-100 (100% hemolysis).

[15] = tested on: 3-day-old oral plaque (multispecies) biofilms; assay: Oral plaque biofilm model, long-term (1-3 days) exposure, dead cell volume; format: cell-based; conditions: 10 μg/mL, 1 or 3 days (FIG. 10)
[16] = tested on: 3-day-old oral plaque biofilms; assay: Oral plaque biofilm model, brief (1 minute) exposure, dead cell volume; format: cell-based; conditions: 10 μg/mL, 1 minute (FIG. 11)
[17] = tested on: peripheral blood mononuclear cells (PBMCs); assay: Cytotoxicity (LDH release), PBMCs

CN[C@H](CC(C)C)C(=O)N[C@H]1C(=O)N[C@@H](CC(N)=O)C(=O)N[C@H]2C(=O)N[C@H]3C(=O)N[C@H](C(=O)N[C@H](C(=O)O)c4cc(O)cc(O)c4-c4cc3ccc4O)[C@H](O)c3ccc(c(Cl)c3)Oc3cc2cc(c3O[C@@H]2O[C@H](CO)[C@@H](O)[C@H](O)[C@H]2O[C@H]2C[C@](C)(N)[C@H](O)[C@H](C)O2)Oc2ccc(cc2Cl)[C@H]1O [VAN]
Peptide/Antibiotic Concentration where at least 80% of biofilm growth was inhibited [1]: >256 µg/mL
Peptide/Antibiotic Concentration where at least 80% of biofilm growth was inhibited [2]: 0.25 µg/mL
Peptide/Antibiotic Concentration where at least 80% of biofilm growth was inhibited [3]: 128 µg/mL
Peptide/Antibiotic Concentration where at least 80% of biofilm growth was inhibited [4]: 8 µg/mL
Peptide/Antibiotic Concentration where at least 80% of biofilm growth was inhibited [5]: >256 µg/mL
Peptide/Antibiotic Concentration where at least 80% of biofilm growth was inhibited [6]: 64 µg/mL
Peptide/Antibiotic Concentration where at least 80% of biofilm growth was inhibited [7]: 16 µg/mL

CC[C@@H](C)[C@@H](NC(=O)[C@@H](C)NC(=O)[C@@H](CCCNC(=N)N)NC(=O)[C@@H](Cc1c[nH]c2ccccc12)NC(=O)[C@@H](CCC(N)=O)NC(=O)[C@H](NC(=O)[C@@H](CCCNC(=N)N)NC(=O)[C@H](NC(=O)[C@H](NC(=O)[C@@H](CCCNC(=N)N)NC(=O)[C@H](NC(=O)[C@H](N)CCCCN)C(C)C)C(C)C)[C@H](C)CC)C(C)C)C(N)=O [AB117-D, kvrvirvqwrai] (H-[dK][dV][dR][dV][dI][dR][dV][dQ][dW][dR][dA][dI]-NH2)
Activity against PAO1 biofilms compared to AB103-D [8]: activity superior to that of AB103-D
minimum inhibitory concentration of peptide that inhibited at least 90% of biofilm growth (MBIC90) [9]: 0.5 µM
Peptide aggregation ([10]; 50 μg/ml): slightly
Clinical score [11]: < 2
Better activity vs. MRSA cf. AB103-D ([12]; MRSA biofilms): ~2 fold
minimum inhibitory concentration of peptide that inhibited at least 90% of biofilm growth (MBIC90) [13]: 8 µM

CC[C@@H](C)[C@@H](NC(=O)[C@@H](C)NC(=O)[C@@H](CCCNC(=N)N)NC(=O)[C@@H](Cc1c[nH]c2ccccc12)NC(=O)[C@@H](CCC(N)=O)NC(=O)[C@H](N)C(C)C)C(=O)N[C@@H](C(=O)N[C@@H](C(=O)N[C@H](CCCNC(=N)N)C(=O)N[C@@H](C(=O)N[C@@H](C(=O)N[C@H](CCCNC(=N)N)C(N)=O)[C@H](C)CC)C(C)C)C(C)C)[C@H](C)CC [AB106-D, vqwraiivrvir-NH2] (H-[dV][dQ][dW][dR][dA][dI][dI][dV][dR][dV][dI][dR]-NH2)
Hemolysis [14]: only marginally toxic at the highest peptide concentration evaluated
Peptide aggregation ([10]; 200 μg/ml or highest concentration): marginal peptide aggregation
Killing of oral plaque biofilms, long-term exposure [15]: activity comparable to peptide DJK-5
Killing of oral plaque biofilms, brief exposure [16]: comparable to or better than peptide DJK-5
Cytotoxicity (LDH) [17]: only marginally toxic at the highest peptide concentration evaluated

CC[C@@H](C)[C@@H](NC(=O)[C@H](NC(=O)[C@@H](CCCNC(=N)N)NC(=O)[C@H](NC(=O)[C@@H](CCCNC(=N)N)NC(=O)[C@H](NC(=O)[C@H](NC(=O)[C@@H](CCCNC(=N)N)NC(=O)[C@@H](Cc1c[nH]c2ccccc12)NC(=O)[C@@H](CCC(N)=O)NC(=O)[C@H](N)C(C)C)C(C)C)[C@H](C)CC)C(C)C)C(C)C)C(=O)N[C@H](CCCNC(=N)N)C(N)=O [AB108-D, vqwrvirvrvir-NH2] (H-[dV][dQ][dW][dR][dV][dI][dR][dV][dR][dV][dI][dR]-NH2)
Biofilm inhibitory activity compared to DJK5 ([12]; MRSA, three concentrations (FIG. 1)): only slightly lower than the DJK5 sample
